Assay results as given in US20200002283A1, “PYRAZOLE DERIVATIVES HAVING ACTIVITY AGAINST PAIN” (priority 2016, published 2020).
Like-named read-outs stand apart in the source and are kept apart here.

Experiments:
[1] = target: Human α2δ-1 subunit of Cav2.2 calcium channel (Homo sapiens, UniProt P54289); assay: Human α2δ-1 subunit of Cav2.2 calcium channel assay ([3H]-Gabapentin binding)
Method: Human α2δ-1 Subunit of Cav2.2 Calcium Channel Assay
Human α2δ-1 enriched membranes (2.5 μg) were incubated with 15 nM of radiolabeled [3H]-Gabapentin in assay buffer containing Hepes-KOH 10 mM, pH 7.4. NSB (non specific binding) was measured by adding 10 μM pregabalin. After 60 min incubation at 27° C., binding reaction was terminated by filtering through Multiscreen GF/C (Millipore) presoaked in 0.5% polyethyleneimine in Vacuum Manifold Station, followed by 3 washes with ice-cold filtration buffer containing 50 mM Tris-HCl, pH 7.4. Filter plates were dried at 60° C. for 1 hour and 30 μl of scintillation cocktail were added to each well before radioactivity reading. Readings were performed in a Trilux 1450 Microbeta radioactive counter (Perkin Elmer).

human μ-opioid receptor = target: T1, human μ-opioid receptor (Homo sapiens, UniProt P35372); assay: Human μ-opioid receptor radioligand assay ([3H]-DAMGO); type: binding
T1 construct: expressed in transfected cells; host or cells: CHO-K1
Method: Human μ-Opioid Receptor Radioligand Assay
To investigate binding properties of test compounds to human μ-opioid receptor, transfected CHO-K1 cell membranes and [^3H]-DAMGO (Perkin Elmer, ES-542-C), as the radioligand, were used. The assay was carried out with 20 μg of membrane suspension, 1 nM of [^3H]-DAMGO in either absence or presence of either buffer or 10 μM Naloxone for total and non-specific binding, respectively. Binding buffer contained Tris-HCl 50 mM, MgCl2 5 mM at pH 7.4. Plates were incubated at 27° C. for 60 minutes. After the incubation period, the reaction mix was then transferred to MultiScreen HTS, FC plates (Millipore), filtered and plates were washed 3 times with ice-cold 10 mM Tris-HCL (pH 7.4). Filters were dried and counted at approximately 40% efficiency in a MicroBeta scintillation counter (Perkin-Elmer) using EcoScint liquid scintillation cocktail.

[2] = human α2δ-1 enriched membranes, 15 nM [3H]-Gabapentin, read-out: α2δ-1 binding
[3] = transfected CHO-K1 cell membranes, 1 nM [3H]-DAMGO, read-out: μ binding

Chain of Human α2δ-1 subunit of Cav2.2 calcium channel (P54289 25-1103): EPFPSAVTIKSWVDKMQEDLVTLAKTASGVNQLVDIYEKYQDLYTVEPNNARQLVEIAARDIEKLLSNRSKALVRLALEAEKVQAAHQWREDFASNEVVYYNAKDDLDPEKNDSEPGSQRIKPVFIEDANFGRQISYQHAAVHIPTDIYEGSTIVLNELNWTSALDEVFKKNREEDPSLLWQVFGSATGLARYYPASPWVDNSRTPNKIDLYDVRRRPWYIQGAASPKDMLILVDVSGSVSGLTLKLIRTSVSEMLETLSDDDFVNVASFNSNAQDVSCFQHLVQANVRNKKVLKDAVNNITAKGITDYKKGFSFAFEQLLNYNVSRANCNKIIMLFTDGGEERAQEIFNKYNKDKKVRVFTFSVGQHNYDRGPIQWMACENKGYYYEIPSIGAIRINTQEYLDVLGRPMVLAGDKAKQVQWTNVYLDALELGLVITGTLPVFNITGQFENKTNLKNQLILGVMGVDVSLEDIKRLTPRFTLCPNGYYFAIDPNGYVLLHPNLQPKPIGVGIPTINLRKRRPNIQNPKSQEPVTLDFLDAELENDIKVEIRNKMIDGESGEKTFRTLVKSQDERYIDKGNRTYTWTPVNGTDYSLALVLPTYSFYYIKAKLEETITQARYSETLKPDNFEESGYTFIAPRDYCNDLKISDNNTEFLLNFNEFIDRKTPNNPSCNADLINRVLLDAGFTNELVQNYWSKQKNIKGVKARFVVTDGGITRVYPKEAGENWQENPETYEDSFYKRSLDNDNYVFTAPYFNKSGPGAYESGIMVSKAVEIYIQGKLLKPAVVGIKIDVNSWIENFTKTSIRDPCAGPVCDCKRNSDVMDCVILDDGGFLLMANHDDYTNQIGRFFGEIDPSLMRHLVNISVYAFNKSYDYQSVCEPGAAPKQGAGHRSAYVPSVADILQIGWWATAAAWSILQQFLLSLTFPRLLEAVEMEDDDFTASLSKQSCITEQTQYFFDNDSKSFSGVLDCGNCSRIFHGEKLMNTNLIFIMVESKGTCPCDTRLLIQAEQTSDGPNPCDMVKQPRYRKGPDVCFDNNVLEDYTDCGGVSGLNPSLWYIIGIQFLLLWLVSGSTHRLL
T1 sequence (P35372 whole entry): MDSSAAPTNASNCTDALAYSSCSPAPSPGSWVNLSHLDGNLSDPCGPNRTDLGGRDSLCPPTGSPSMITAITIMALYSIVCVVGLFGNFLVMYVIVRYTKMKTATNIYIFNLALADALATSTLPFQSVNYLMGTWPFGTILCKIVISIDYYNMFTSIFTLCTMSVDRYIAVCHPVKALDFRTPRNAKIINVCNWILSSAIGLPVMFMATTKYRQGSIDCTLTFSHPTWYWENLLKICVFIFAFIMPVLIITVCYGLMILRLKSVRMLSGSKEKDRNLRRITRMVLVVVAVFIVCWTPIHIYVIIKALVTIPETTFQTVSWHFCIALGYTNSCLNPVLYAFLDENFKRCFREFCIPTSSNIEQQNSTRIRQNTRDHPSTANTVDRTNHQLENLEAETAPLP

Ki [1, 2] [nM] | Ki (human μ-opioid receptor; [3]) [nM] | Compound | Ki [1] [nM] | Ki (human μ-opioid receptor) [nM]
– | – | CCC(N)c1cc(Cc2ccc(O)cc2)n(-c2ccc(Cl)cc2Cl)n1 (centres unmarked) [Example 54, 4-{[3-(1-Aminopropyl)-1-(2,4-dichlorophenyl)-1H-pyrazol-5-yl]methyl}phenol] | 500 to 3000 | 100 to 500
500 to 3000 | > 500 | CC(N)c1cc(C(C)(C)c2ccc(O)cc2)n(-c2ccc(Cl)cc2Cl)n1 (centres unmarked) [Example 55, 4-{2-[3-(1-Aminoethyl)-1-(2,4-dichlorophenyl)-1H-pyrazol-5-yl]propan-2-yl]phenol] | – | –
– | – | CC(C)(N)c1cc(Cc2ccc(O)c(F)c2)n(-c2ccc(Cl)cc2Cl)n1 [Example 56, 4-{[3-(2-Aminopropan-2-yl)-1-(2,4-dichlorophenyl)-1H-pyrazol-5-yl]methyl}-2-fluorophenol] | 3000 to 5000 | < 100
– | – | CC(C)(N)c1cc(Cc2ccc(O)cc2)n(-c2ccc(Cl)cc2Cl)n1 [Example 57, 4-{[3-(2-Aminopropan-2-yl)-1-(2,4-dichlorophenyl)-1H-pyrazol-5-yl]methyl}phenol] | 3000 to 5000 | < 100
– | – | NCCc1cc(Cc2ccc(O)cc2)n(-c2ccc(Cl)cc2Cl)n1 [Example 58, 4-{[3-(2-Aminoethyl)-1-(2,4-dichlorophenyl)-1H-pyrazol-5-yl]methyl}phenol] | 3000 to 5000 | < 100
– | – | CC(CN)c1cc(Cc2ccc(O)cc2)n(-c2ccc(Cl)cc2Cl)n1 (centres unmarked) [Example 59, 4-{[3-(1-Aminopropan-2-yl)-1-(2,4-dichlorophenyl)-1H-pyrazol-5-yl]methyl}phenol] | > 5000 | < 100
– | – | CCC(CN)c1cc(Cc2ccc(O)cc2)n(-c2ccc(Cl)cc2Cl)n1 (centres unmarked) [Example 60, 4-{[3-(1-Aminobutan-2-yl)-1-(2,4-dichlorophenyl)-1H-pyrazol-5-yl]methyl}phenol] | > 5000 | < 100
– | – | C[C@H](N)c1cc(Cc2ccc(O)cc2)n(-c2ccc(Cl)cc2Cl)n1 [Example 61, (S)-4-{[3-(1-Aminoethyl)-1-(2,4-dichlorophenyl)-1H-pyrazol-5-yl]methyl}phenol] | < 500 | < 100
– | – | C[C@@H](N)c1cc(Cc2ccc(O)cc2)n(-c2ccc(Cl)cc2Cl)n1 [Example 62, (R)-4-{[3-(1-Aminoethyl)-1-(2,4-dichlorophenyl)-1H-pyrazol-5-yl]methyl}phenol] | 500 to 3000 | < 100
– | – | CC(N)c1cc(Cc2ccc(O)cc2)n(C2CCCCC2)n1 (centres unmarked) [Example 65, 4-{[3-(1-Aminoethyl)-1-cyclohexyl-1H-pyrazol-5-yl]methyl}phenol] | < 500 | > 500
> 5000 | > 500 | CC(N)c1cc(Cc2ccc(O)cc2)n(C2CCOCC2)n1 (centres unmarked) [Example 66, 4-{[3-(1-Aminoethyl)-1-(tetrahydro-2H-pyran-4-yl)-1H-pyrazol-5-yl]methyl}phenol] | – | –
> 5000 | > 500 | CC(N)c1cc(Cc2ccc(O)cc2)n(CCc2ccccc2)n1 (centres unmarked) [Example 67, 4-{[3-(1-Aminoethyl)-1-phenethyl-1H-pyrazol-5-yl]methyl}phenol] | – | –
– | – | CC(N)Cc1cc(Cc2ccc(O)cc2)n(-c2ccc(Cl)cc2Cl)n1 (centres unmarked) [Example 68, 4-{[3-(2-Aminopropyl)-1-(2,4-dichlorophenyl)-1H-pyrazol-5-yl]methyl}phenol] | > 5000 | < 100
– | – | COc1ccc(-n2nc([C@@H](C)N)cc2Cc2ccc(O)cc2)c(Cl)c1 [Example 69, (R)-4-{[3-(1-Aminoethyl)-1-(2-chloro-4-methoxyphenyl)-1H-pyrazol-5-yl]methyl}phenol] | > 5000 | 100 to 500
– | – | COc1ccc(-n2nc([C@H](C)N)cc2Cc2ccc(O)cc2)c(Cl)c1 [Example 70, (S)-4-{[3-(1-Aminoethyl)-1-(2-chloro-4-methoxyphenyl)-1H-pyrazol-5-yl]methyl}phenol] | < 500 | 100 to 500
– | – | NC(CO)c1cc(Cc2ccc(O)cc2)n(-c2ccc(Cl)cc2Cl)n1 (centres unmarked) [Example 71, 4-{[3-(1-Amino-2-hydroxyethyl)-1-(2,4-dichlorophenyl)-1H-pyrazol-5-yl]methyl}phenol] | > 5000 | 100 to 500
– | – | NC(CN1CCCCC1)c1cc(Cc2ccc(O)cc2)n(-c2ccc(Cl)cc2Cl)n1 (centres unmarked) [Example 72, 4-({3-[1-Amino-2-(piperidin-1-yl)ethyl]-1-(2,4-dichlorophenyl)-1H-pyrazol-5-yl}methyl)phenol] | > 5000 | 100 to 500
> 5000 | > 500 | NC(CN1CCOCC1)c1cc(Cc2ccc(O)cc2)n(-c2ccc(Cl)cc2Cl)n1 (centres unmarked) [Example 73, 4-{[3-(1-Amino-2-morpholinoethyl)-1-(2,4-dichlorophenyl)-1H-pyrazol-5-yl]methyl}phenol] | – | –
500 to 3000 | > 500 | NCc1cc(Cc2ccc(Nc3nccs3)cc2)n(-c2ccc(Cl)cc2Cl)n1 [Example 74, N-(4-{[3-(Aminomethyl)-1-(2,4-dichlorophenyl)-1H-pyrazol-5-yl]methyl}phenyl)thiazol-2-amine] | – | –
500 to 3000 | > 500 | CC(N)c1cc(Cc2ccc(OCCO)cc2)n(-c2ccc(Cl)cc2Cl)n1 (centres unmarked) [Example 75, 2-(4-{[3-(1-Aminoethyl)-1-(2,4-dichlorophenyl)-1H-pyrazol-5-yl]methyl}phenoxy)ethan-1-ol] | – | –
– | – | NC(CC(=O)O)c1cc(Cc2ccc(O)cc2)n(-c2ccc(Cl)cc2Cl)n1 (centres unmarked) [Example 76, 3-Amino-3-[1-(2,4-dichlorophenyl)-5-(4-hydroxybenzyl)-1H-pyrazol-3-yl]propanoic acid] | > 5000 | 100 to 500
– | – | NC(=O)CC(N)c1cc(Cc2ccc(O)cc2)n(-c2ccc(Cl)cc2Cl)n1 (centres unmarked) [Example 77, 3-Amino-3-[1-(2,4-dichlorophenyl)-5-(4-hydroxybenzyl)-1H-pyrazol-3-yl]propanamide] | > 5000 | < 100
